pEC50: −log10 of the molar value.

The term pEC50 denotes the negative decadic logarithm of the EC50, by convention in mol/L.

Common to all, as to assay type: functional, cell-based
In test [1] the target is T1, Prostaglandin E2 receptor EP1 subtype (Homo sapiens, UniProt P34995).
T1 sequence (P34995 whole entry): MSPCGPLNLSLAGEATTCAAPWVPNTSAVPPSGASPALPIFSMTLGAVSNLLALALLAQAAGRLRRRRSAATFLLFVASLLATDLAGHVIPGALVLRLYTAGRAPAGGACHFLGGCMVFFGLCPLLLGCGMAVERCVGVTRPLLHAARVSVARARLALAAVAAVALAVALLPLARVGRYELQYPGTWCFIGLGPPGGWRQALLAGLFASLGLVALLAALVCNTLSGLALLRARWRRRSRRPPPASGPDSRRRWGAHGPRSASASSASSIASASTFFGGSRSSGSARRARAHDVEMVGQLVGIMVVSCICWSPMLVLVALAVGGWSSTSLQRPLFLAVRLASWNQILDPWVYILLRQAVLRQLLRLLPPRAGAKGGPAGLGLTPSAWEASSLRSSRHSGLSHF
Briefly: Agonist activity at human EP1 expressed in HEK293 cells assessed as increase in cAMP level incubated for 20 mins measured after 60 mins addition of cAMP detect reagent by HTRF analysis. On the technique in general: cAMP levels reflect the balance of adenylyl cyclase and phosphodiesterase activity.

Test [2] concerns the target T2, Prostaglandin D2 receptor (Homo sapiens, UniProt Q13258).
T2 sequence (Q13258 whole entry): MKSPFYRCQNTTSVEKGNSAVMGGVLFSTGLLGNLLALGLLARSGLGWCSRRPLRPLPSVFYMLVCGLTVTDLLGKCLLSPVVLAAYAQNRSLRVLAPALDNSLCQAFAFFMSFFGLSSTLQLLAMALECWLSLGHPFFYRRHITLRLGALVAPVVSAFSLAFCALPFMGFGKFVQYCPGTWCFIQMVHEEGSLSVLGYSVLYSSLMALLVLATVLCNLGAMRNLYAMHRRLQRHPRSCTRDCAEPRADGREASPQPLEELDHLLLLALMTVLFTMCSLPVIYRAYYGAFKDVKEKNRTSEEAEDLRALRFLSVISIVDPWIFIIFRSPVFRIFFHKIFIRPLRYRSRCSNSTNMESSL
Description: Agonist activity at human DP1 expressed in human 1321N1 cells assessed as increase in cAMP level incubated for 20 mins measured after 60 mins addition of cAMP detect reagent by HTRF analysis.

For test [3], the target named is Prostaglandin E2 receptor EP2 subtype (Homo sapiens, UniProt P43116). Briefly: Agonist activity at human EP2 expressed in HEK293 cells assessed as increase in cAMP level incubated for 20 mins measured after 60 mins addition of cAMP detect reagent by HTRF analysis.
Chain of Prostaglandin E2 receptor EP2 subtype (P43116 whole entry): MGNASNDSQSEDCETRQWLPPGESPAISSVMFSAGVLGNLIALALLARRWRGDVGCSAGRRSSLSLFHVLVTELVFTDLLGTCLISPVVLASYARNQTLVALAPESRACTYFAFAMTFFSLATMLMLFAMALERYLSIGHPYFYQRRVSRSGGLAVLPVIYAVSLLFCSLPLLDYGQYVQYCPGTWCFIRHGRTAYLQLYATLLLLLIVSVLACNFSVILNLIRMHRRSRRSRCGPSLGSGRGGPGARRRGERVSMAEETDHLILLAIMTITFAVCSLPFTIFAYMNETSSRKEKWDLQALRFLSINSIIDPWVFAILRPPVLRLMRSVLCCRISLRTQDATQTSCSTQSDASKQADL
The target in a further test is Prostacyclin receptor (Homo sapiens, UniProt P43119). Description: Agonist activity at human IP expressed in HEK293 cells assessed as increase in cAMP level incubated for 20 mins measured after 60 mins addition of cAMP detect reagent by HTRF analysis.
Chain of Prostacyclin receptor (P43119 whole entry): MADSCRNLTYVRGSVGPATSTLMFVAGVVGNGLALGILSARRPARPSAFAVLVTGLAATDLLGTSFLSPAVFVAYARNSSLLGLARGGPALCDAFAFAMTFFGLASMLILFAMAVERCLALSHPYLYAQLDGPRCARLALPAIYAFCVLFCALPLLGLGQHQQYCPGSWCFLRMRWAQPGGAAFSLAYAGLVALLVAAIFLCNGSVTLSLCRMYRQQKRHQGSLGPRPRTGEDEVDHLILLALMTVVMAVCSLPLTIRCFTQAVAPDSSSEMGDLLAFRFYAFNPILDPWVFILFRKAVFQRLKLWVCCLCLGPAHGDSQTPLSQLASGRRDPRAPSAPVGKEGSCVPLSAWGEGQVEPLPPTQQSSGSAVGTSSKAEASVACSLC

`CC#CCC(C)[C@H](O)/C=C/[C@@H]1[C@H]2C/C(=C/CCCC(=O)O)C[C@H]2C[C@H]1O` (some centres not stated) [ILOPROST]: the pEC50 is 9.52 in test [1], 5.69 in test [2] and 5.68 in test [3].
Turning to `CCCCC[C@H](O)CC[C@@H]1[C@H]2Cc3cccc(OCC(=O)O)c3C[C@H]2C[C@H]1O` [TREPROSTINIL], the pEC50 is 8.72 at Prostacyclin receptor, 6.55 in test [1], 9.22 in test [2] and 8.21 in test [3].

Values taken from ChEMBL document CHEMBL5126530, “Building on endogenous lipid mediators to design synthetic receptor ligands” (Eur J Med Chem, 2022).
